Reference: US12404241B2 (Celgene Corporation, priority 2018, dated 2025)

Target: T1, AR (Homo sapiens, UniProt P10275)
T1 construct: endogenous in cells; host or cells: VCaP cells
T1 sequence (P10275 1-920): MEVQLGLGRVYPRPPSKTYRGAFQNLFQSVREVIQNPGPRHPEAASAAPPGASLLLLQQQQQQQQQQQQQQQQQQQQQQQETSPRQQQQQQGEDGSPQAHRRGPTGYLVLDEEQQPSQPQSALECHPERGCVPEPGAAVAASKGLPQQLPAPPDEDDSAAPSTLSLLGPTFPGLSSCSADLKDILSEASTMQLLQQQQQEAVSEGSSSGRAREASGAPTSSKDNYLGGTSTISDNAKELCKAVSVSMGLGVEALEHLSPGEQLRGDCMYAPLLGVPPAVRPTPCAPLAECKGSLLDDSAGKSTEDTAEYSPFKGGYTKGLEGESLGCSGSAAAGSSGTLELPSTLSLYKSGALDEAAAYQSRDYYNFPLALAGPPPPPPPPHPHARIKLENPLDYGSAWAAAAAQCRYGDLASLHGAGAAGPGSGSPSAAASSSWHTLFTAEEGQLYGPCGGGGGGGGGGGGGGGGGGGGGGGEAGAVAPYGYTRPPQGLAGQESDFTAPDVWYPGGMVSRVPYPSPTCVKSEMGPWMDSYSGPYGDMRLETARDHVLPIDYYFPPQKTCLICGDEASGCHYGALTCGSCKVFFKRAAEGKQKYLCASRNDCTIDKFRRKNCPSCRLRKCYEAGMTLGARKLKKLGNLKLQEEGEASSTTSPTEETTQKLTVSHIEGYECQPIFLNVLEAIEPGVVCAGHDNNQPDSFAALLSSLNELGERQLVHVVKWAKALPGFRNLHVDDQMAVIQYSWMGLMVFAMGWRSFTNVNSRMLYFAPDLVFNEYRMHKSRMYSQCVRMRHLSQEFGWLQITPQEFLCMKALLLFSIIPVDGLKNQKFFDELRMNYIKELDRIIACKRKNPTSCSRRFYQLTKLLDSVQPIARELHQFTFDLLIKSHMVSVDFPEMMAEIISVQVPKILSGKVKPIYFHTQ
Experiment: VCAP AR Degradation Assay
Type: cell-based
Settings: for Y (AR degradation efficiency, % of DMSO control): class symbols *; for DC50: class symbols A-C, read-out: DC50
Summary of the method: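 Compounds were plated as 10-point 1:3 series reaching 5 μM final, then VCaP cells were seeded onto them and incubated 24 h at 37 °C. Cells were lysed cold, and total AR was measured by sandwich ELISA relative to 0.1% DMSO wells.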

| SMILES | Y (AR degradation efficiency, % of DMSO control) | DC50 [nM] |
| --- | --- | --- |
| CC[C@@H]1CN(CCOc2ccc(N3C(=S)N(c4cnc(C#N)c(C(F)(F)F)c4)C(=O)C34CCC4)cc2C2CC2)CCN1CC(=O)Nc1cccc(NC2CCC(=O)NC2=O)c1 (stereo partly drawn) [Example 262, 2-((R)-4-(2-(4-(7-(6-cyano-5-(trifluoromethyl)pyridin-3-yl)-8-oxo-6-thioxo-5,7-diazaspiro[3.4]octan-5-yl)-2-cyclopropylphenoxy)ethyl)-2-ethylpiperazin-1-yl)-N-(3-(2,6-dioxopiperidin-3-ylamino)phenyl)acetamide] | * (0<Y<=25%) | 100 to 500 |
| CC[C@H]1CN(CCOc2ccc(N3C(=S)N(c4ccc(C#N)c(C(F)(F)F)c4)C(=O)C3(C)C)cc2C2CC2)CCN1CC(=O)Nc1cccc(NC2CCC(=O)NC2=O)c1 (stereo partly drawn) [Example 263, 2-((S)-4-(2-(4-(3-(4-cyano-3-(trifluoromethyl)phenyl)-5,5-dimethyl-4-oxo-2-thioxoimidazolidin-1-yl)-2-cyclopropylphenoxy)ethyl)-2-ethylpiperazin-1-yl)-N-(3-(2,6-dioxopiperidin-3-ylamino)phenyl)acetamide] | * (0<Y<=25%) | < 100 |
| CCc1cc(N2C(=S)N(c3ccc(C#N)c(C(F)(F)F)c3)C(=O)C23CCCCC3)ccc1OCCN1C[C@@H](C)N(CC(=O)Nc2cccc(NC3CCC(=O)NC3=O)c2)[C@@H](C)C1 (stereo partly drawn) [Example 264, 2-((2S,6R)-4-(2-(4-(3-(4-cyano-3-(trifluoromethyl)phenyl)-4-oxo-2-thioxo-1,3-diazaspiro[4.5]decan-1-yl)-2-ethylphenoxy)ethyl)-2,6-dimethylpiperazin-1-yl)-N-(3-(2,6-dioxopiperidin-3-ylamino)phenyl)acetamide] | * (0<Y<=25%) | < 100 |
| C[C@@H]1CN(CCOc2ccc(N3C(=S)N(c4cnc(C#N)c(C(F)(F)F)c4)C(=O)C34CCC4)cc2C(C)(F)F)C[C@H](C)N1CC(=O)Nc1cccc(NC2CCC(=O)NC2=O)c1 (stereo partly drawn) [Example 265, 2-((2S,6R)-4-(2-(4-(7-(6-cyano-5-(trifluoromethyl)pyridin-3-yl)-8-oxo-6-thioxo-5,7-diazaspiro[3.4]octan-5-yl)-2-(1,1-difluoroethyl)phenoxy)ethyl)-2,6-dimethylpiperazin-1-yl)-N-(3-(2,6-dioxopiperidin-3-ylamino)phenyl)acetamide] | * (0<Y<=25%) | < 100 |
| C[C@@H]1CN(CCOc2ccc(N3C(=S)N(c4ccc(C#N)c(C(F)(F)F)c4)C(=O)C34CCCC4)cc2C2CC2)C[C@H](C)N1CC(=O)Nc1cccc(NC2CCC(=O)NC2=O)c1 (stereo partly drawn) [Example 266, 2-((2S,6R)-4-(2-(4-(3-(4-cyano-3-(trifluoromethyl)phenyl)-4-oxo-2-thioxo-1,3-diazaspiro[4.4]nonan-1-yl)-2-cyclopropylphenoxy)ethyl)-2,6-dimethylpiperazin-1-yl)-N-(3-(2,6-dioxopiperidin-3-ylamino)phenyl)acetamide] | * (0<Y<=25%) | < 100 |
| CCc1cc(N2C(=S)N(c3ccc(C#N)c(C(F)(F)F)c3)C(=O)C23CCCC3)ccc1OCCN1C[C@@H](C)N(CC(=O)Nc2cccc(NC3CCC(=O)NC3=O)c2)[C@@H](C)C1 (stereo partly drawn) [Example 267, 2-((2S,6R)-4-(2-(4-(3-(4-cyano-3-(trifluoromethyl)phenyl)-4-oxo-2-thioxo-1,3-diazaspiro[4.4]nonan-1-yl)-2-ethylphenoxy)ethyl)-2,6-dimethylpiperazin-1-yl)-N-(3-(2,6-dioxopiperidin-3-ylamino)phenyl)acetamide] | * (0<Y<=25%) | < 100 |
| C[C@@H]1CN(CCOc2ccc(N3C(=S)N(c4cnc(C#N)c(C(F)(F)F)c4)C(=O)C3(C)C)cc2C2CCC2)C[C@H](C)N1CC(=O)Nc1cccc(NC2CCC(=O)NC2=O)c1 (stereo partly drawn) [Example 268, 2-((2R,6S)-4-(2-(4-(3-(6-cyano-5-(trifluoromethyl)pyridin-3-yl)-5,5-dimethyl-4-oxo-2-thioxoimidazolidin-1-yl)-2-cyclobutylphenoxy)ethyl)-2,6-dimethylpiperazin-1-yl)-N-(3-(2,6-dioxopiperidin-3-ylamino)phenyl)acetamide] | ** (25%<Y<=35%) | < 100 |
| C[C@@H]1CN(CCOc2ccc(N3C(=S)N(c4ccc(C#N)c(Cl)c4)C(=O)C3(C)C)cc2C(C)(F)F)C[C@H](C)N1CC(=O)Nc1cccc(NC2CCC(=O)NC2=O)c1 (stereo partly drawn) [Example 269, 2-((2S,6R)-4-(2-(4-(3-(3-chloro-4-cyanophenyl)-5,5-dimethyl-4-oxo-2-thioxoimidazolidin-1-yl)-2-(1,1-difluoroethyl)phenoxy)ethyl)-2,6-dimethylpiperazin-1-yl)-N-(3-(2,6-dioxopiperidin-3-ylamino)phenyl)acetamide] | * (0<Y<=25%) | < 100 |
| CCc1c(OCCN2C[C@@H](C)N(CC(=O)Nc3cccc(NC4CCC(=O)NC4=O)c3)[C@@H](C)C2)ccc(N2C(=S)N(c3ccc(C#N)c(C(F)(F)F)c3)C(=O)C2(C)C)c1C (stereo partly drawn) [Example 270, 2-((2R,6S)-4-(2-(4-(3-(4-cyano-3-(trifluoromethyl)phenyl)-5,5-dimethyl-4-oxo-2-thioxoimidazolidin-1-yl)-2-ethyl-3-methylphenoxy)ethyl)-2,6-dimethylpiperazin-1-yl)-N-(3-(2,6-dioxopiperidin-3-ylamino)phenyl)acetamide] | ** (25%<Y<=35%) | 100 to 500 |
| CCc1c(OCCN2C[C@@H](C)N(CC(=O)Nc3cccc(NC4CCC(=O)NC4=O)c3)[C@@H](C)C2)ccc(N2C(=S)N(c3ccc(C#N)c(C(F)(F)F)c3)C(=O)C2(C)C)c1F (stereo partly drawn) [Example 271, 2-((2S,6R)-4-(2-(4-(3-(4-cyano-3-(trifluoromethyl)phenyl)-5,5-dimethyl-4-oxo-2-thioxoimidazolidin-1-yl)-2-ethyl-3-fluorophenoxy)ethyl)-2,6-dimethylpiperazin-1-yl)-N-(3-(2,6-dioxopiperidin-3-ylamino)phenyl)acetamide] | * (0<Y<=25%) | < 100 |
| C[C@@H]1CN(CCOc2ccc(N3C(=S)N(c4ccc(C#N)c(C(F)(F)F)c4)C(=O)C3(C)C)cc2C2CC2)CCN1CC(=O)Nc1cccc(NC2CCC(=O)NC2=O)c1 (stereo partly drawn) [Example 272, 2-((R)-4-(2-(4-(3-(4-cyano-3-(trifluoromethyl)phenyl)-5,5-dimethyl-4-oxo-2-thioxoimidazolidin-1-yl)-2-cyclopropylphenoxy)ethyl)-2-methylpiperazin-1-yl)-N-(3-(2,6-dioxopiperidin-3-ylamino)phenyl)acetamide] | * (0<Y<=25%) | < 100 |
| CCc1cc(N2C(=S)N(c3ccc(C#N)c(C(F)(F)F)c3)C(=O)C2(C)C)ccc1CCCN1C[C@@H](C)N(CC(=O)Nc2cccc(NC3CCC(=O)NC3=O)c2)C[C@H]1C (stereo partly drawn) [Example 273, 2-((2R,5R)-4-(3-(4-(3-(4-cyano-3-(trifluoromethyl)phenyl)-5,5-dimethyl-4-oxo-2-thioxoimidazolidin-1-yl)-2-ethylphenyl)propyl)-2,5-dimethylpiperazin-1-yl)-N-(3-(2,6-dioxopiperidin-3-ylamino)phenyl)acetamide] | * (0<Y<=25%) | < 100 |
